How the values were obtained:
barnyardgrass [1] = experiment: Test A preemergence; assay type: in vivo, Echinochloa crus-galli; conditions: 0 to 100 scale
Summary of the method: (§1)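 Injury readout: eye-scored versus untreated controls, 0 to 100. Exposure period: ~10 days, greenhouse. Application: soil-directed spray over sown seed (pre) or spray on seedlings 2–10 cm tall with one or two leaves (post), compound carried in non-phytotoxic solvent including surfactant.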

crabgrass, large [2] = experiment: Test A preemergence; assay type: in vivo, Digitaria sanguinalis; conditions: 0 to 100 scale
Summary of the method: as §1

foxtail, giant [3] = experiment: Test A preemergence; assay type: in vivo, Setaria faberii; conditions: 0 to 100 scale
Summary of the method: as §1

morningglory [4] = experiment: Test A preemergence; assay type: in vivo, Ipomoea spp.; conditions: 0 to 100 scale
Summary of the method: as §1

pigweed [5] = experiment: Test A preemergence; assay type: in vivo, Amaranthus retroflexus; conditions: 0 to 100 scale
Summary of the method: as §1

velvetleaf [6] = experiment: Test A preemergence; assay type: in vivo, Abutilon theophrasti; conditions: 0 to 100 scale
Summary of the method: as §1

wheat [7] = experiment: Test A preemergence; assay type: in vivo, Triticum aestivum; conditions: preemergence
Summary of the method: as §1

corn [8] = experiment: Test A preemergence; assay type: in vivo, Zea mays; conditions: 0 to 100 scale
Summary of the method: as §1

barnyardgrass [9] = experiment: Test A postemergence; assay type: in vivo, Echinochloa crus-galli; conditions: Postemergence
Summary of the method: as §1

crabgrass, large [10] = experiment: Test A postemergence; assay type: in vivo, Digitaria sanguinalis
Summary of the method: as §1

foxtail, giant [11] = experiment: Test A postemergence; assay type: in vivo, Setaria faberii
Summary of the method: as §1

morningglory [12] = experiment: Test A postemergence; assay type: in vivo, Ipomoea spp.
Summary of the method: as §1

pigweed [13] = experiment: Test A postemergence; assay type: in vivo, Amaranthus retroflexus
Summary of the method: as §1

velvetleaf [14] = experiment: Test A postemergence; assay type: in vivo, Abutilon theophrasti
Summary of the method: as §1

wheat [15] = experiment: Test A postemergence; assay type: in vivo, Triticum aestivum
Summary of the method: as §1

corn [16] = experiment: Test A postemergence; assay type: in vivo, Zea mays
Summary of the method: as §1

rice = experiment: Test C flooded paddy test; assay type: in vivo, Oryza sativa; conditions: Flood
Summary of the method: (§2)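 In-water treatment: compound dosed into 3 cm flood over soil, water level unchanged throughout. Controls run alongside; visual assessment at day 13–15.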

sedge, umbrella = experiment: Test C flooded paddy test; assay type: in vivo, Cyperus difformis; conditions: Flood
Summary of the method: as §2

ducksalad = experiment: Test C flooded paddy test; assay type: in vivo, Heteranthera limosa; conditions: Flood
Summary of the method: as §2

barnyardgrass [17] = experiment: Test C flooded paddy test; assay type: in vivo, Echinochloa crus-galli; conditions: Flood
Summary of the method: as §2

[18] = Preemergence, 500 g ai/ha, 0 no effect, 100 complete control
[19] = preemergence, 125 g ai/ha, visual injury, approx. 10 days
[20] = Postemergence, 500 g ai/ha, visual rating after approx. 10 days, 0 to 100 scale (0 no effect, 100 complete control)
[21] = postemergence, 125 g ai/ha, about 10 days, visual rating on 0 to 100 scale (0 no effect, 100 complete control)
[22] = 62 g ai/ha, scale 0 to 100 (0 no effect, 100 complete control)

CCc1cc(C(=O)NOC(C)(C)CC)nn1Cc1cccc(OC(F)(F)F)c1 [Compound 71]
0: Wheat plant response rating (wheat [7]; 125 g ai/ha, visual injury, 0 to 100 scale, approx. 10 days) | Corn plant response rating (corn [8]; [19]) | Plant response rating, Rice (rice; [22]) | Plant response rating, Ducksalad (ducksalad; [22]) | Plant response rating, Ducksalad (ducksalad; 125 g ai/ha, scale 0 to 100) | Plant response rating, Ducksalad (ducksalad; 250 g ai/ha, scale 0 to 100) | Plant response rating, Barnyardgrass (barnyardgrass [17]; [22])
80: Barnyardgrass plant response rating (barnyardgrass [1]; [18]) | Foxtail, Giant plant response rating (foxtail, giant [3]; [19]) | Pigweed plant response rating (pigweed [5]; [19]) | Crabgrass, Large plant response rating (crabgrass, large [10]; [20]) | Pigweed plant response rating (pigweed [13]; [20])
60: Barnyardgrass plant response rating (barnyardgrass [1]; [19])
70: Wheat plant response rating (wheat [7]; 500 g ai/ha, visual injury after approx. 10 days, 0 to 100 scale (0 no effect, 100 complete control)) | Barnyardgrass plant response rating (barnyardgrass [9]; 500 g ai/ha, visual rating after approx. 10 days, 0 to 100 scale (0 no effect, 100 complete control)) | Foxtail, Giant plant response rating (foxtail, giant [11]; [20]) | Plant response rating, Sedge, Umbrella (sedge, umbrella; [22])
30: Velvetleaf plant response rating (velvetleaf [6]; [19]) | Barnyardgrass plant response rating (barnyardgrass [9]; 125 g ai/ha, 0 to 100 scale, 0 no effect, 100 complete control) | Wheat plant response rating (wheat [15]; [21]) | Corn plant response rating (corn [16]; [21]) | Plant response rating, Rice (rice; 125 g ai/ha, scale 0 to 100)
100: Crabgrass, Large plant response rating (crabgrass, large [2]; [18]) | Foxtail, Giant plant response rating (foxtail, giant [3]; [18]) | Pigweed plant response rating (pigweed [5]; [18]) | Velvetleaf plant response rating (velvetleaf [14]; [20])
10: Corn plant response rating (corn [8]; [18])
85: Plant response rating, Sedge, Umbrella (sedge, umbrella; 250 g ai/ha, scale 0 to 100)
75: Plant response rating, Sedge, Umbrella (sedge, umbrella; 125 g ai/ha, scale 0 to 100)
20: Morningglory plant response rating (morningglory [4]; [19]) | Plant response rating, Barnyardgrass (barnyardgrass [17]; 125 g ai/ha, scale 0 to 100)
45: Plant response rating, Rice (rice; 250 g ai/ha, scale 0 to 100)
40: Velvetleaf plant response rating (velvetleaf [6]; [18]) | Crabgrass, Large plant response rating (crabgrass, large [10]; [21]) | Foxtail, Giant plant response rating (foxtail, giant [11]; [21]) | Morningglory plant response rating (morningglory [12]; [20]) | Morningglory plant response rating (morningglory [12]; [21]) | Pigweed plant response rating (pigweed [13]; [21]) | Plant response rating, Barnyardgrass (barnyardgrass [17]; 250 g ai/ha, scale 0 to 100)
50: Morningglory plant response rating (morningglory [4]; [18]) | Velvetleaf plant response rating (velvetleaf [14]; [21]) | Wheat plant response rating (wheat [15]; [20]) | Corn plant response rating (corn [16]; [20])
90: Crabgrass, Large plant response rating (crabgrass, large [2]; [19])
